From patent US7087616B2, “Pyrazolyl pyrimidines” (Bayer CropScience AG, priority 2001, dated 2006)

Assays:
Meloidogyne incognita = experiment: Meloidogyne Test; type: in vivo; details: 20 ppm, nematicidal action by gall formation on lettuce
Procedure: (§1) To produce a suitable preparation of active compound, 1 part by weight of active compound is mixed with the stated amounts of solvent and emulsifier, and the concentrate is diluted with water to the desired concentration.
Containers are filled with sand, solution of active compound, Meloidogyne incognita egg/larvae suspension and lettuce seeds. The lettuce seeds germinate and the plants develop. On the roots, galls are formed.
After the desired period of time, the nematicidal action is determined in % by the gall formation. 100% means that no galls were found; 0% means that the number of galls on the treated plants corresponds to that of the untreated control.
The amount of solvent, amount of emulsifier, active compounds, active compound concentrations and test results are shown in the Tables below.

[1] = system: larvae of the mustard beetle (Phaedon cochlearae); experiment: Phaedon Larvae Test; type: in vivo; details: 500 ppm; cabbage leaves dipped
Procedure: [table] To produce a suitable preparation of active compound, 1 part by weight of active compound is mixed with the stated amounts of solvent and emulsifier, and the concentrate is diluted with emulsifier-containing water to the desired concentration. Cabbage leaves (Brassica oleracea) are treated by being dipped into the preparation of active compound of the desired concentration and are populated with larvae of the mustard beetle (Phaedon cochlearae) while the leaves are still moist.

[2] = Aust. J. Chem. 1980, 33, 2291–2298; cited from earlier work
[3] = system: green peach aphids (Myzus persicae); experiment: Myzus Test/Broad Beans; type: in vivo; details: broad bean seedlings dipped
Procedure: To produce a suitable preparation of active compound, 1 part by weight of active compound is mixed with the stated amount of solvent and the stated amount of emulsifier, and the concentrate is diluted with emulsifier-containing water to the desired concentrations.
Broad bean (Vicia faba minor) seedlings which are infested by green peach aphids (Myzus persicae) are dipped into a preparation of active compound of the desired concentration and placed into a plastic box.
After the desired period of time, the kill in % is determined. 100% means that all animals have been killed; 0% means that none of the animals have been killed.

Aphis gossypii = experiment: Critical Concentration/Root-systemic Action; type: in vivo; details: 20 ppm (mg/l soil); root-systemic action, cucumber plants
Procedure: as §1
The preparation of active compound is intimately mixed with soil. The concentration of the active compound in the preparation is of practically no importance here, only the amount by weight of active compound per unit volume of soil, which is given in ppm (=mg/l), being decisive. The treated soil is transferred into pots and these are planted with cucumber plants at the cotyledon stage. In this way, the active compound can be taken up from the plant and be transported into the leaves.
After a further 7 days, evaluation is carried out by counting or estimating the dead animals. The root-systemic action of the active compound is deduced from the mortality figures. It is 100% if all test animals have been killed and 0% if just as many test insects are still alive as in the case of the untreated controls.

[4] = Table A 2, emulsifier 2 parts by weight

O=C(O)CSc1nccc(-n2cc(-c3ccc(Cl)cc3)cn2)n1
Kill rate in % after 14d (Meloidogyne incognita; [4]): 80%

CCOC(=O)CSc1nccc(-n2ccc(C(C)=O)n2)n1
Kill rate in % after 14d (Meloidogyne incognita; [4]): 80%

O=C(O)CSc1nccc(-n2cc(-c3ccccc3)cn2)n1
Kill rate in % after 7d [1]: 100%

Cc1cc(C)n(-c2ccnc(SCC(N)=O)n2)n1 [2-{[4-(3,5-dimethyl-1H-pyrazol-1-yl)-2-pyrimidinyl]thio}acetamide]
enhancing effect on phleomycin [2]: no enhancing effect

COC(=O)CSc1nccc(-n2cc(C)cn2)n1 [drawing 167]
Kill rate in % after 14d (Meloidogyne incognita; Table A 1, emulsifier 1 part by weight): 90%

CCOC(=O)CSc1nccc(-n2cc(Cl)cn2)n1 [drawing 169]
Kill rate in % after 14d (Meloidogyne incognita; [4]): 100%

C#Cc1cnn(-c2ccnc(SCC(=O)OCC)n2)c1 [drawing 171]
Kill rate in % after 14d (Meloidogyne incognita; [4]): 90%

O=C(O)CSc1nccc(-n2cc(Cl)cn2)n1 [drawing 172]
Kill rate in % after 14d (Meloidogyne incognita; [4]): 85%

C=Cc1cnn(-c2ccnc(SCC(=O)OCC)n2)c1 [drawing 173]
Kill rate in % after 14d (Meloidogyne incognita; [4]): 80%

COC(=O)CSc1nccc(-n2cc(C)cn2)n1 [drawing 194]
Kill rate in % after 6d ([3]; 500 ppm): 100%

COC(=O)CSc1nccc(-n2cc(Br)cn2)n1 [drawing 195]
Kill rate in % after 6d ([3]; 100 ppm): 100%

CCOC(=O)CSc1nccc(-n2cc(C)cn2)n1 [drawing 196]
Kill rate in % after 6d ([3]; 500 ppm): 99%

CCOC(=O)CSc1nccc(-n2cccn2)n1 [drawing 197]
Kill rate in % 7d after infection (Aphis gossypii): 90%

CCOC(=O)CSc1nccc(-n2cc(-c3ccccc3)cn2)n1 [drawing 207]
Kill rate in % after 7d [1]: 100%
